Experiments:
Human PARP-1 enzyme = target: T1, Human PARP-1 enzyme (Homo sapiens, UniProt P09874); experiment: In vitro Scintillation Proximity Assay (SPA) for PARP-1 inhibitory activity; assay type: biochemical; conditions: read-out: in vitro SPA assay PARP-1 pIC50 (converted)
T1 construct: purchased Trevigen
Method in brief: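 SPA assay: nicked-DNA-activated PARP-1 (0.1–0.2 μg/ml) ADP-ribosylates biotinylated histones (2 μg/ml) using [3H]-NAD+, 20 min at RT in Tris pH 8/DTT/MgCl2, stopped with 2 mM NAD+. Blank-subtracted cpm expressed as % control; IC50 by linear interpolation, reported as pIC50 (10−5 to 3×10−9 M tested).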

HCT116 cells = experiment: Mitotic arrest assay on HCT116 cells (phospho-histone H3 Ser10); assay type: cell-based, human; conditions: lowest active dose; for Mitotic arrest HCT116 LAD: HCT116 cells, the values are: pLAD (−log M lowest active dose); for minimal effective concentration: Homo sapiens, HCT-116, HCT116 cells, read-out: Mitotic arrest HCT116 LAD (converted)
Method in brief: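 Seeded overnight, then compound-treated 6 h at 37 °C (≤0.1% DMSO); fixed, stained with Alexa Fluor 488 anti-phospho-H3 (Ser10) plus Hoechst 33342, imaged on InCell Analyzer 1000. Blank-subtracted signal divided by SD (sigma), triplicate; value is lowest dose giving sigma >5 (LAD).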

T1 sequence (P09874 whole entry): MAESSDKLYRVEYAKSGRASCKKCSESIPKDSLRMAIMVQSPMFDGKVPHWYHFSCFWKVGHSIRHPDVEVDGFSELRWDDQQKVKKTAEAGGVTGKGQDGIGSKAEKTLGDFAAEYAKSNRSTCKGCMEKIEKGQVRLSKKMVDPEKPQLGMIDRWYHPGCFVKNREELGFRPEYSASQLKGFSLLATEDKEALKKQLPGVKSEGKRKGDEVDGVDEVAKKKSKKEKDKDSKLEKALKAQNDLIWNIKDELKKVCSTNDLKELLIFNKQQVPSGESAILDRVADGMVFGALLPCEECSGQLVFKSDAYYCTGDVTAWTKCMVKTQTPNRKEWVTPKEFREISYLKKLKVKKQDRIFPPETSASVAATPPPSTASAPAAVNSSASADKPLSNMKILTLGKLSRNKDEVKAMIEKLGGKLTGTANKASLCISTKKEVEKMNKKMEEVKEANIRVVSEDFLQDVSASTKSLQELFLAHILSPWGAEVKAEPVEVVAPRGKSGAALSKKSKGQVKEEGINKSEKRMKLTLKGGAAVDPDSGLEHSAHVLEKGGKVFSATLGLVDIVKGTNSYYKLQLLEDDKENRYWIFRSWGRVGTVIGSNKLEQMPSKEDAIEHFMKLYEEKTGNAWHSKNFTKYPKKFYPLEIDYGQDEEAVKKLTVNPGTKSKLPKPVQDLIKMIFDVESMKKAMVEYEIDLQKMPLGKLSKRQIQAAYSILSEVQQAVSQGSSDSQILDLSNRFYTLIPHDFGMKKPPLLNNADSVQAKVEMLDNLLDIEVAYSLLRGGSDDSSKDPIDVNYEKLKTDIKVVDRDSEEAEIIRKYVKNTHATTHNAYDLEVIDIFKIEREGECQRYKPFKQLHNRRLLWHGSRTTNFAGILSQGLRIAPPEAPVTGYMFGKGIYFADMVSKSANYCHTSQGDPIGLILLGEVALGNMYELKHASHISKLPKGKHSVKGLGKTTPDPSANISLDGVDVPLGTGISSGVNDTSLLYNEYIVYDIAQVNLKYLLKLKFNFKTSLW

Structure (SMILES)	IC50 (Human PARP-1 enzyme)	Mitotic arrest HCT116 LAD (HCT116 cells)	minimal effective concentration (HCT116 cells)
CCc1cc2ccc(C(C)(C#N)Cc3cccc(C#N)n3)cc2[nH]c1=O (single isomer, unassigned) [Compound 206]	50.1 nM	5	
CCc1cc2ccc(C(C)(C#N)Cc3cccc(C#N)n3)cc2[nH]c1=O (single isomer, unassigned) [Compound 207]	39.8 nM	7	
CCc1cc2ccc([C@@](C)(C#N)Cc3cccc(N(C)C)c3)cc2[nH]c1=O (single isomer, unassigned) [Compound 258]	50.1 nM		0.1 µM
CCc1cc2ccc([C@](C)(C#N)Cc3cccc(N(C)C)c3)cc2[nH]c1=O (single isomer, unassigned) [Compound 259]	79.4 nM		10 µM
CCC[C@@](C#N)(Cc1ccccc1)c1ccc2cc(CC)c(=O)[nH]c2c1 (single isomer, unassigned) [Compound 263]	631 nM		1 µM
CCC[C@](C#N)(Cc1ccccc1)c1ccc2cc(CC)c(=O)[nH]c2c1 (single isomer, unassigned) [Compound 264]	398 nM		10 µM
CCc1cc2ccc([C@@](C)(C#N)Cc3cccc(C#N)c3)cc2[nH]c1=O (single isomer, unassigned) [Compound 268]	50.1 nM		10 µM
CCc1cc2ccc([C@](C)(C#N)Cc3cccc(C#N)c3)cc2[nH]c1=O (single isomer, unassigned) [Compound 269]	31.6 nM		0.1 µM
CCc1cc2ccc([C@](C)(C#N)C[C@@H]3Cc4cc(C)ccc4O3)cc2[nH]c1=O (single isomer, unassigned) [Compound 400]	398 nM		10 µM
C#Cc1cccc(C[C@](C)(C#N)c2ccc3cc(CC)c(=O)[nH]c3c2)c1 [Compound 2]	126 nM		10 µM
C#Cc1cccc(C[C@@](C)(C#N)c2ccc3cc(CC)c(=O)[nH]c3c2)c1 [Compound 3]	79.4 nM		0.01 µM
CCc1cc2ccc(C(C#N)(CC)Cc3ccccc3)cc2[nH]c1=O (centres unmarked) [Compound 32]	501 nM		1 µM
COc1ccccc1-c1nc(CC(C)(C#N)c2ccc3cc(C)c(=O)[nH]c3c2)no1 (centres unmarked) [Compound 33]	1260 nM		1 µM
Cc1cc2ccc(C(C)(C#N)Cc3cccc(C#N)c3)cc2[nH]c1=O (centres unmarked) [Compound 34]	794 nM		0.1 µM
Cc1cc2ccc([C@@](C)(C#N)Cc3cccc(C#N)c3)cc2[nH]c1=O [Compound 35]	501 nM		3.16 µM
Cc1cc2ccc([C@](C)(C#N)Cc3cccc(C#N)c3)cc2[nH]c1=O [Compound 36]	1580 nM		0.1 µM
Cc1cc2ccc(C(C)(C#N)Cc3cccc(Cl)c3)cc2[nH]c1=O (centres unmarked) [Compound 37]	2000 nM		0.1 µM
CC(C)c1cc2ccc(C(C)(C#N)Cc3ccccc3)cc2[nH]c1=O (centres unmarked) [Compound 38]	> 10000 nM		3.16 µM
CC(=O)c1cc2ccc(C(C)(C#N)Cc3ccccc3)cc2[nH]c1=O (centres unmarked) [Compound 39]	7940 nM		3.16 µM
CCc1cc2ccc(C(C)(C#N)Cc3cccc(OC[C@@H](O)CO)c3)cc2[nH]c1=O (some centres unmarked) [Compound 56]	100 nM		3 µM

Structure (SMILES)	IC50 (Human PARP-1 enzyme)	Mitotic arrest HCT116 LAD (HCT116 cells)	minimal effective concentration (HCT116 cells)
CCc1cc2ccc(C(C)(C#N)Cc3cccc(CCC#N)c3)cc2[nH]c1=O (centres unmarked) [Compound 169]	79.4 nM	6	
CCc1cc2ccc(C(C)(C#N)Cc3cccc(CNS(C)(=O)=O)c3)cc2[nH]c1=O (centres unmarked) [Compound 170]	79.4 nM		3 µM
C=Cc1cccc(CC(C)(C#N)c2ccc3cc(CC)c(=O)[nH]c3c2)c1 (centres unmarked) [Compound 172]	100 nM		0.3 µM
CCc1cc2cc(F)c(C(C)(C#N)Cc3cccc(C#N)c3)cc2[nH]c1=O (centres unmarked) [Compound 175]	200 nM		0.3 µM
CCc1c(C)c2ccc(C(C)(C#N)Cc3cccc(C#N)c3)cc2[nH]c1=O (centres unmarked) [Compound 181]	100 nM		0.3 µM
CCc1cc2cc(OCCOC)c(C(C)(C#N)Cc3cccc(C#N)c3)cc2[nH]c1=O (centres unmarked) [Compound 182]	158 nM		10 µM
CCc1cc2ccc(C(C)(C#N)Cc3cccc(C#CCO)c3)cc2[nH]c1=O (centres unmarked) [Compound 183]	63.1 nM		0.1 µM
CCc1cc2ccc(C(F)(C#N)Cc3ccccc3)cc2[nH]c1=O (centres unmarked) [Compound 187]	63.1 nM		3 µM
CCc1cc2ccc(C(C)(C#N)CN(C)Cc3ccccc3)cc2[nH]c1=O (centres unmarked) [Compound 189]	398 nM		1 µM
CCc1cc2ccc(C(C)(C#N)C(C)c3ccccc3)cc2[nH]c1=O (centres unmarked) [Compound 198]	126 nM		0.3 µM
CCc1cc2ccc([C@](C)(C#N)[C@@H](C)c3ccccc3)cc2[nH]c1=O [Compound 199]	79.4 nM		3 µM
CCc1cc2ccc([C@](C)(C#N)[C@H](C)c3ccccc3)cc2[nH]c1=O [Compound 200]	251 nM		0.3 µM
CCc1cc2ccc(C(C)(C#N)Cc3cccc(C#C[Si](C)(C)C)n3)cc2[nH]c1=O (centres unmarked) [Compound 210]	398 nM		1 µM
C#Cc1cccc(CC(C)(C#N)c2ccc3cc(CC)c(=O)[nH]c3c2)n1 (centres unmarked) [Compound 211]	126 nM		1 µM
CCc1cc2ccc(C(C)(C#N)Cc3cccc(N(C)C)n3)cc2[nH]c1=O (centres unmarked) [Compound 213]	63.1 nM		0.3 µM
CCc1cc2ccc(C(C)(C#N)Cc3cccc(I)n3)cc2[nH]c1=O (centres unmarked) [Compound 214]	50.1 nM		0.3 µM
CCOC(=O)c1cccc(CC(C)(C#N)c2ccc3cc(CC)c(=O)[nH]c3c2)n1 (centres unmarked) [Compound 215]	398 nM		1 µM
CCc1cc2ccc(C(C)(C#N)Cc3cccc(COC)n3)cc2[nH]c1=O (centres unmarked) [Compound 216]	398 nM		1 µM
CCc1cc2ccc(C(C)(C#N)Cc3cccc(OCCOC)n3)cc2[nH]c1=O (centres unmarked) [Compound 219]	100 nM		1 µM
CCc1cc2ccc(C(C)(C#N)Cc3cccc(CN)n3)cc2[nH]c1=O (centres unmarked) [Compound 221]	79.4 nM		3 µM

Structure (SMILES)	IC50 (Human PARP-1 enzyme)	Mitotic arrest HCT116 LAD (HCT116 cells)	minimal effective concentration (HCT116 cells)
CCc1cc2ccc(C(C)(C#N)Cc3cccc(OCCO)c3)cc2[nH]c1=O (centres unmarked) [Compound 262]	79.4 nM		0.3 µM
CCc1cc2ccc(C(C)(C#N)CCOc3cccc(C(F)(F)F)c3)cc2[nH]c1=O (centres unmarked) [Compound 274]	501 nM		1 µM
CCc1cc2ccc(C(C)(C#N)Cc3cccc(CN)c3)cc2[nH]c1=O (centres unmarked) [Compound 290]	50.1 nM		0.3 µM
CCc1cc2ccc(C(C)(C#N)Cc3cccc(/C=C/S(C)(=O)=O)c3)cc2[nH]c1=O (centres unmarked) [Compound 292]	63.1 nM		0.1 µM
CCc1c(Cl)c2ccc(C(C)(C#N)Cc3cccc(C#N)c3)cc2[nH]c1=O (centres unmarked) [Compound 293]	398 nM		0.3 µM
CCc1cc2cc(OC)c(C(C)(C#N)Cc3ccccc3)cc2[nH]c1=O (centres unmarked) [Compound 294]	251 nM		3 µM
CCc1cc2ccc(C(C)(C#N)Cc3cccc(C#CCOC)c3)cc2[nH]c1=O (centres unmarked) [Compound 297]	79.4 nM		0.3 µM
CCc1cc2ccc(C(C)(C#N)Cc3cccc(C#CCN(C)C)c3)cc2[nH]c1=O (centres unmarked) [Compound 298]	501 nM		1 µM
CCc1cc2ccc(C(C)(C#N)CNCc3cccc(C#N)c3)cc2[nH]c1=O (centres unmarked) [Compound 301]	100 nM		1 µM
CCc1cc2ccc(C(C)(C#N)Cc3cnc(Cl)nc3Cl)cc2[nH]c1=O (centres unmarked) [Compound 306]	79.4 nM		10 µM
COc1cc(OC)nc(CC(C)(C#N)c2ccc3cc(C)c(=O)[nH]c3c2)n1 (centres unmarked) [Compound 308]	631 nM		0.1 µM
CCOc1cc(OCC)nc(CC(C)(C#N)c2ccc3cc(CC)c(=O)[nH]c3c2)n1 (centres unmarked) [Compound 309]	158 nM		1 µM
CCc1cc2ccc(C(C)(C#N)Cc3cccc(Cl)n3)cc2[nH]c1=O (centres unmarked) [Compound 310]	100 nM		0.3 µM
CCc1cc2ccc(C(C)(C#N)Cc3ncc(C)c(OC)c3C)cc2[nH]c1=O (centres unmarked) [Compound 311]	126 nM		1 µM
CCc1cc2ccc(C(C)(C#N)Cc3ccc(C)nc3)cc2[nH]c1=O (centres unmarked) [Compound 327]	100 nM		3 µM
CCc1cc2ccc(C(C)(C#N)Cc3cccc(C#N)n3)cc2[nH]c1=O (centres unmarked) [Compound 329]	79.4 nM		0.3 µM
CCCn1ccnc1CC(C)(C#N)c1ccc2cc(CC)c(=O)[nH]c2c1 (centres unmarked) [Compound 335]	251 nM		3 µM
CCc1cc2ccc(C(C)(C#N)Cc3ccc4ccccc4n3)cc2[nH]c1=O (centres unmarked) [Compound 336]	79.4 nM		1 µM
